Values after ≈ are worked out from the molar mass of the structure shown.
Tests used:
[1] = system: Bacillus subtilis; assay: Antimicrobial activity against Bacillus subtilis; type: functional
[2] = Cytotoxicity against mouse NS1 cells; type: functional

Row | Structure (SMILES) | MIC [1] | LD99 [2]
1 | C=CC(C)(C)[C@@]12C[C@H]3C(=O)N/C(=C/c4c[nH]cn4)C(=O)N3[C@@H]1Nc1ccccc12 [ROQUEFORTINE C] | 6.3 µg/mL (≈ 16.2 µM) | 50 µg/mL
2 | C=CC(C)(C)c1[nH]cnc1/C=C1/NC(=O)[C@@H]2C[C@@]3(C(C)(C)C=C)c4ccccc4N[C@H]3N2C1=O [ROQUEFORTINE E] | – | 24 µg/mL
